The values that follow come from PubChem BioAssay (NCI).

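Method: 48-hour compound exposure of cells in 96-well plates, five concentrations, linear interpolation of endpoints. TGI marks complete inhibition of growth.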

Holding throughout (test): NCI tumour cell line growth inhibition, 48 h
For assay [1], the system named is SN12K1 renal.
For assay [2], the system named is P388/ADR leukemia.
The subject of assay [3] is XF 498 CNS.
Assay [4] has as its system LXFL 529 NSCLC.

On to `Nc1nc(=O)n(C2OC(CO)C(O)C2O)cc1F` (centres undefined), for which the results for the TGI in assay [1], in assay [2] and in assay [3] were > 100 µM, 0.182 µM and > 100 µM, respectively.

In the case of `c1ccc2cc3n[se]nc3cc2c1`, the TGI in assay [4] was > 100 µM.
